Experimental data published in patent publication US11793218B2, “Sweetener and flavor compositions, methods of making and methods of use thereof” (EPC Natural Products Co., Ltd., priority 2018, dated 2023).
Each block holds one molecule with its values, some of them ahead of it.

Assays:
[1] = Sensory evaluation of the samples prepared in Example 50 (Example 52); type: in vivo, human; design: key to Intensity of Smell: “+” for slight; “++” for moderate; “+++” for very strong
[2] = Sensory analysis of odor/smell, color and taste of Maillard reaction samples at 22 C (Examples 55-62); type: in vivo, human
Protocol: The reaction partners were dissolved in water and then warmed glycerin (60° C.) was added. […]
[…] After 20 minutes in the ice bath the sealed vials were put in a water bath set to 22° C.
The odor/smell was assessed independently by 3 persons; the final description was agreed after discussion. […] The taste was assessed independently by 3 persons either in the original samples or after appropriate dilution to achieve relevant concentrations of sugars and steviol-glycosides (i.e. 5-9% SE); the final description was agreed after discussion.

[3] = as above; type: in vivo, human; remark: listed apart in the source
[4] = Sensory evaluation of GSGs and SGs, Thaumatin, NHDC and combinations in water (Example 255); type: in vivo, human
Protocol: 4.5 ppm Thaumatin (equivalent to 10 ppm EPCalin) was dissolved in water. Increasing amounts of NHDC (1-5 ppm) were added to the solution and the sensory properties were evaluated.
50 ppm (GSGs and SGs) were dissolved in water. Increasing amounts of NHDC (1-5 ppm) were added to the solution and the sensory properties were evaluated.
50 ppm (GSGs and SGs) and 4.5 ppm Thaumatin (equivalent to 10 ppm EPCalin) were dissolved in water. Increasing amounts of NHDC (1-5 ppm) were added to the solution and the sensory properties were evaluated.
Sweetness intensity was rated on 5-point scale
Sweetness intensity was rated on a 5-point scale

[5] = cited from earlier work
[6] = Assay to test reducing power (active iron-III reduction), Example 64; type: physicochemical; conditions: 100° C., up to 5.0 hours, diluted 1:10; FIG. 49
[7] = DPPH radical-scavenging activity, Example 65; type: physicochemical; conditions: 100° C., up to 5.0 hours, diluted 1:10; FIG. 50
Protocol: 1 mg 1,1-Diphenyl-2-picrylhydrazyl radical (DPPH)/ml ethanol, dilution to assay concentration were prepared in ethanol (40 μg/mL); Calibration samples were prepared with Ascorbic acid in a concentration of 0-10 μg/mL; as a negative control sample, water was used.
Samples in aqueous solution were used as such or diluted with water.
A 0.1 ml sample (or calibration standard) was mixed with 3.9 ml solution of DPPH (100 μMolar) and reacted while protected from light at room temperature for 30 min. Absorbance was determined at 517 nm against ethanol.
10 mM of amino acid and/or 10 mM sugar were dissolved in 10 ml 0.1 mM KH2PO4-buffer, pH=7.8.
The samples were kept at 100° C. in sealed glass vials (Pyrex 15 ml with screw caps) for 0 (before reaction), 2.5 or 5.0 hours. Thereafter the samples were transferred to an ice water bath and cooled down to room temperature. These samples were diluted 1:10 and used for the test assay for anti-oxidant potential.

[8] = HPLC/DAD/MS detection of MRI (Amadori) products and degradation kinetics of reactants at various pH-conditions; conditions: reaction of Phe and Xyl
[9] = Table 52.2, 1 ml water + 9 ml Glycerin, 0.67 h, 100° C.
[10] = Table 52.5, 1 ml water + 9 ml Glycerin, 2.0 h, 120° C.
[11] = Table 52.6, Glycerin 10 ml, 100° C., 40 min
[12] = Table 52.7, Glycerin 10 ml, 1 h, 120° C.
[13] = Table 56.1, negative controls (no carbohydrate source), 10 ml glycerin/water=9:1, 100° C., 40 minutes
[14] = Table 57.2, before reaction, 10 ml KH2PO4, pH 7.8
[15] = Table 52.1, samples of Example 50 after reaction
[16] = Table 57.3, after reaction, 10 ml KH2PO4, pH 7.8, 2.5 h, 120° C.

Molecule: C[C@H](N)C(=O)O [0.1 mMol Ala]
- Smell [1, 9]: Agar
- Taste [1, 9]: sweet

Molecule: O=C[C@H](O)[C@H]1OC(=O)[C@@H](O)[C@H]1O [0.1 mMol GlucLac]
- Smell [1, 10]: Burnt sugar

Molecule: N[C@@H](Cc1ccccc1)C(=O)O [0.1 mMol Phe]
- Intensity of Smell [1, 10]: +
- Smell [1, 10]: Caramel, burnt

Molecule: C=C1C[C@@]23CC[C@H]4[C@@](C)(CCC[C@@]4(C)C(=O)O[C@@H]4O[C@H](CO)[C@@H](O)[C@H](O)[C@H]4O)[C@@H]2CC[C@]1(O[C@@H]1O[C@H](CO)[C@@H](O)[C@H](O[C@@H]2O[C@H](CO)[C@@H](O)[C@H](O)[C@H]2O)[C@H]1O[C@@H]1O[C@H](CO)[C@@H](O)[C@H](O)[C@H]1O)C3 [0.05 mMol Reb-A]
- Smell [1, 9]: neutral/unpleasant
- Taste [1, 9]: sweet

Molecule: N[C@@H](Cc1ccccc1)C(=O)O [3.3 mMol Phe]
- Smell ([1]; Table 52.6, Glycerin 10 ml, 100° C., 5 min): Slightly bloomy
- Smell ([1]; Table 52.6, Glycerin 10 ml, 100° C., 10 min): flowery/bloomy
- Smell ([1]; Table 52.6, Glycerin 10 ml, 100° C., 20 min): flowery/bloomy
- Smell [1, 11]: flowery/bloomy
- Smell [1, 12]: flowery/bloomy

Molecule: C[C@H](N)C(=O)O [8.91 mg Ala]
- Taste [2, 13]: Slightly sweet

Molecule: OC[C@H]1OC(O)[C@H](O)[C@@H](O)[C@@H]1O (stereo partly drawn) [9 mg Glucose]
- Smell [3, 14]: neutral
- Taste [3, 14]: Sweet

Molecule: OC[C@H]1OC(O)[C@H](O)[C@@H](O)[C@@H]1O (stereo partly drawn) [10 mMol Glu]
- Smell [1, 11]: Slightly Caramel
- Smell [1, 12]: Slightly Caramel

Molecule: COc1ccc(CCC(=O)c2c(O)cc(O[C@@H]3O[C@H](CO)[C@@H](O)[C@H](O)[C@H]3O[C@@H]3O[C@@H](C)[C@H](O)[C@@H](O)[C@H]3O)cc2O)cc1O [10 ppm NHDC]
- Sensory evaluation ([4]; combinations of EPCalin and NHDC in water): Sweet, steep onset of sweetness, no lingering

Molecule: N[C@@H](CO)C(=O)O [10.5 mg Ser]
- Smell [2, 13]: Lotus flower
- Taste [2, 13]: Slightly sweet

Molecule: O=C(O)[C@@H]1CCCN1 [11.5 mg Pro]
- Taste [2, 13]: Slightly sweet

Molecule: C[C@@H](O)[C@H](N)C(=O)O [11.91 mg Thr]
- Smell [2, 13]: Vanilla, butter
- Taste [2, 13]: Slightly sweet

Molecule: N[C@@H](CS)C(=O)O [12.1 mg Cys]
- Smell [2, 13]: Unpleasant (sulfur)
- Taste [2, 13]: Slightly sweet

Molecule: CC[C@H](C)[C@H](N)C(=O)O [13.11 mg Ile]
- Smell [2, 13]: Coffee
- Taste [2, 13]: Slightly sweet

Molecule: NCCCC[C@H](N)C(=O)O [14.7 mg Lys]
- Smell [2, 13]: Popcorn
- Taste [2, 13]: Slightly sweet

Molecule: CSCC[C@H](N)C(=O)O [14.9 mg Met]
- Smell [2, 13]: Sulfuric
- Taste [2, 13]: Slightly sweet

Molecule: NC(=O)CC[C@H](N)C(=O)O [14.62 mg Gln]
- Taste [2, 13]: Slightly sweet

Molecule: N[C@@H](Cc1ccccc1)C(=O)O [16.5 mg Phe]
- Smell ([2]; Example 58, after reaction): Caramel, burnt
- Taste ([2]; Example 58, after reaction, after dilution 1:20): Sweet
- Smell ([2]; Example 58, before reaction): Neutral
- Smell [2, 13]: Bloomy, caramel
- Taste [2, 13]: Slightly sweet
- Smell [3, 14]: neutral
- Taste [3, 14]: No taste

Molecule: N[C@@H](Cc1ccc(O)cc1)C(=O)O [18.1 mg Tyr]
- Smell [2, 13]: neutral
- Taste [2, 13]: Slightly sweet

Molecule: N[C@@H](Cc1c[nH]c2ccccc12)C(=O)O [20.42 mg Try]
- Smell [2, 13]: Unpleasant (fecal)
- Taste [2, 13]: Slightly sweet

Molecule: N[C@@H](CCC(=O)O)C(=O)O [167 mMol Glu]
- Smell [1, 15]: caramel
- Taste [1, 15]: Sweet

Molecule: O=C[C@H](O)[C@@H](O)[C@H](O)[C@H](O)C(=O)O [Glucuronic Acid]
- Smell [3, 16]: burnt bread
- Taste [3, 16]: Bitter

Molecule: O=C1O[C@@H]2[C@@H](O)[C@H](O)O[C@@H]2C1O (stereo partly drawn) [Glucuronolactone]
- Smell [3, 16]: Burnt sugar
- Taste [3, 16]: Bitter

Molecule: CC1(C)[C@@H](O[C@H]2O[C@H](C(=O)O)[C@@H](O)[C@H](O)[C@H]2O[C@@H]2O[C@H](C(=O)O)[C@@H](O)[C@H](O)[C@H]2O)CC[C@]2(C)[C@H]3C(=O)C=C4[C@@H]5C[C@@](C)(C(=O)O)CC[C@]5(C)CC[C@@]4(C)[C@]3(C)CC[C@@H]12 [Glycyrrhizin, reference compound]
- times sweeter than sucrose (sugar) ([5]; sweetness depends on the tested concentration compared with sucrose): 30 to 50 times

Molecule: COc1ccc(CCC(=O)c2c(O)cc(O[C@@H]3O[C@H](CO)[C@@H](O)[C@H](O)[C@H]3O[C@@H]3O[C@@H](C)[C@H](O)[C@@H](O)[C@H]3O)cc2O)cc1O [NHDC, Neohesperidin dihydrochalcone, reference compound]
- sensory properties (sweetness, onset, mouth-feel, lingering) ([4]; in water, 4.5 ppm Thaumatin and/or 50 ppm GSGs and SGs with NHDC): long lasting lingering

Molecule: N[C@@H](Cc1ccccc1)C(=O)O [Phe 60 mMol]
- Smell [1, 15]: flowery/bloomy-caramel
- Taste [1, 15]: Sweet

Molecule: N[C@H](Cc1ccccc1)C(=O)O [Phe]
- Taste [3, 16]: sweet

Molecule: C=C1C[C@@]23CC[C@H]4[C@@](C)(CCC[C@@]4(C)C(=O)O[C@@H]4O[C@H](CO)[C@@H](O)[C@H](O)[C@H]4O)[C@@H]2CC[C@]1(O[C@@H]1O[C@H](CO)[C@@H](O)[C@H](O[C@@H]2O[C@H](CO)[C@@H](O)[C@H](O)[C@H]2O)[C@H]1O[C@@H]1O[C@H](CO)[C@@H](O)[C@H](O)[C@H]1O)C3 [Reb-A, Rebaudioside A]
- active iron-III reduction (anti-oxidant properties) [6]: substantial anti-oxidant properties
- radical scavenging properties (anti-oxidant properties) [7]: substantial anti-oxidant properties

- % degradation ([8]; pH = 5.5): 4.59%
- % degradation ([8]; pH = 7.0): 6.3%
- % degradation ([8]; pH = 8.5): 9.47%
Molecule: O=C[C@H](O)[C@@H](O)[C@H](O)CO [Xyl]

B1: Miraculin: A protein that does not taste sweet by itself but modifies taste receptors to make sour things taste sweet temporarily (protein, UniProt P13087 30-220, looked up)
Miraculin: DSAPNPVLDIDGEKLRTGTNYYIVPVLRDHGGGLTVSATTPNGTFVCPPRVVQTRKEVDHDRPLAFFPENPKEDVVRVSTDLNINFSAFMPCRWTSSTVWRLDKYDESTGQYFVTIGGVKGNPGPETISSWFKIEEFCGSGFYKLVFCPTVCGSCKVKCGDVGIYIDQKGRRRLALSDKPFAFEFNKTVYF
- Notes (sweet taste) ([5]; in vivo): A protein that does not taste sweet by itself
